These are literature values, as cited in publication PMC11843658 (Journal of Enzyme Inhibition and Medicinal Chemistry, 2025).

The target of this series is LSD1 (Homo sapiens, UniProt O60341). More on the design: purchased Cayman Chemical (Ann Arbor, MI). Conditions: cited from earlier work.

As for `CC/C(=C\c1ccccc1)[C@@H]1C[C@H]1NC1CC2(C1)CN(CCO)C2` [Compound 5], the “mode of LSD1 inhibition” value was “covalently inhibits LSD1”.
